Tests used:
sheep red blood cells = assay: Haemolysis assay; format: cell-based; conditions: if considered to cause haemolysis to red blood cells
Description: (§1) The hemolysis assay was adapted from the study by Evans et al. ([65]). Briefly, sheep RBC 10% washed pooled cells in PBS (Rockland Immunochemicals, Limerick, PA, USA) were diluted 1:5 to give a final concentration of 2% RBCs in PBS. […] A non-treated control, 1% DMSO (vehicle control), and complete cell lysis control (Triton-X 2%) were included in each assay. After exposure samples were centrifuged at 4°C at 1,000 g for 15 min and 100 µL of supernatant transferred to a clean well in a 96-well, clear, flat-bottom plate (Corning Incorporated). Released hemoglobin was measured by absorption at 540 nm using a Spectramax M5 plate reader. The experiments were performed in quadruplicate. The percentage of hemolysis was calculated as follows:
(§2) Hemolysis=A540nm,testcondition−A540nm,DMSOcontrol/A540nm,TritonXControl−A540nm,DMSOcontrol

Haemolysis assay = format: cell-based, sheep; conditions: sheep, sheep red blood cells, 2% suspension; read-out: RBC hemolysis
Description: as §1, §2

HEK293 cells = assay: Cell imaging of HEK293 cells; format: cell-based; conditions: LC20, 24 hours exposure, 40× amplification
Description: HEK293 cells were plated in 24-well plates on exposure medium for 24 hours (500,000 cells/well). Cells were exposed to a subset of compounds at a lethal concentration of 20% (LC20). After 24 hours exposure, cells were fixed with 2% glutaraldehyde for 15 min, washed with water, permeabilized with 0.5% Triton-X, washed twice with water, and stained with Toluidine blue 0.3%. For 100× amplification, cells were harvested by pipetting up and down in 250 µL of exposure medium. Cells from three wells treated with the same compound were pooled and centrifuged for 5 min at 1,500 r.p.m. The cell pellet was fixed in 0.1 M cacodylate buffer containing 2% glutaraldehyde (vol/vol) (pH 7.4). After 1 hour on ice, the pellet was washed with 0.1 M cacodylate buffer and fixed in 0.1 M cacodylate buffer containing 1% osmium tetroxide (wt/vol). After a further hour on ice, the cell pellet was embedded in hard Epon and 1-µm slides were cut and stained with 1% toluidine blue and 1% borax (wt/vol). Cell abnormalities were assessed by microscopy using a Leica DM6B light microscope (Leica Microsystems B.V., Amsterdam, the Netherlands) at 100× magnification.

Compound	Haemolysis (sheep red blood cells)	hemolysis at 30 min (Haemolysis assay) [%]	Morphological changes of HEK293 cells (HEK293 cells)
CCOc1ccc(-c2[nH]nc(C(F)(F)F)c2-c2ccc(Cl)cc2)c(O)c1 [DPP-7]	YES	–	–
Oc1ccc(-c2n[nH]c(C(F)(F)F)c2-c2ccc(Cl)cc2)c(O)c1 [DPP-5]	–	100	membrane blebbing
COc1ccc(-c2[nH]nc(C(F)(F)F)c2-c2ccc(Cl)cc2)c(O)c1 [DPP-6]	YES	100	membrane blebbing
COc1ccc(-c2[nH]nc(C(F)(F)F)c2-c2ccccc2)c(O)c1 [DPP-2]	MILD	–	–
